Assay results: patent US9359297B2, “Spirolactam derivatives and uses of same” (H. Lundbeck A/S, priority 2009, dated 2016)
Read-outs that look alike come from different tables or passages of the source.

Columns and labels:
[1] = target: mGluR5 (allosteric site, [3H]MPEP) (Homo sapiens, UniProt P41594); experiment: [3H]MPEP radioligand filtration binding assay on membrane homogenates; details: 5 nM [3H]MPEP; Ki from IC50 by Cheng and Prusoff equation
Method: Binding assays were performed as described in [J. A. O'Brien et al. Mol. Pharmacol., 2003, 64, 731-740] with slight modifications. Briefly, after thawing, the membrane homogenates were resuspended in 50 mM Tris-HCl, 0.9% NaCl binding buffer at pH 7.4 to a final assay concentration of 40 μg protein/well for [^3H]2-methyl-6-phenylethynyl-pyridine ([^3H] MPEP) (American Radiolabeled Chemicals, Inc., St. Louis, Mo.) filtration binding. Incubations included 5 nM [^3H] MPEP, membranes and either buffer or varying concentrations of compound. Samples were incubated for 60 min at room temperature with shaking. Non-specific binding was defined with 10 μM MPEP. After incubation, samples were filtered over a GF/C filter (presoaked in 0.25% polyethyleneimine (PEI)) and then washed 4 times using a Tomtec® Harvester 96® Mach III cell harvester (Tomtec, Hamden, Conn.) with 0.5 mL ice-cold 50 mM Tris-HCl (pH 7.4).
IC50 values were derived from the inhibition curve and Ki values were calculated according to the Cheng and Prusoff equation of Ki=IC50/(1+[L]/Kd) described in [Y. Cheng and W. H. Prusoff Biochem. Pharmacol. 1973, 22, 3099-3108] where [L] is the concentration of radioligand and Kd is its dissociation constant at the receptor, derived from the saturation isotherm.

[2] = target: T1, rat metabotropic glutamate receptor 5 (rmGluR5) (Rattus norvegicus, UniProt P31424); experiment: Calcium mobilization (FLIPR) assay for negative allosteric modulation, EC80 glutamate, rmGluR5 in HEK 293; type: cell-based; details: HEK293; rmGluR5, inhibition of EC80 glutamate response; read-out: FLIPR maximum inhibition
T1 construct: expressed in transfected cells
Method: The cDNA for rat metabotropic glutamate receptor 5 (rmGluR5) and the cDNA for human metabotropic glutamate receptor 5 (hmGluR5) were generous gifts from S. Nakanishi (Kyoto University, Kyoto, Japan). The rmGluR5 or hmGluR5 was stably expressed in a HEK 293 cell line and grown in Dulbecco's Modified Eagle Medium (DMEM) (Invitrogen, Carlsbad, Calif.) with supplements (10% bovine calf serum, 4 mM glutamine, 100 units/mL penicillin, 100 μg/mL streptomycin and 0.75 mM G1418) at 37° C., 5% CO2. Twenty-four hours prior to assay, cells were seeded into 384-well black wall microtiter plates coated with poly-D-lysine. Just prior to assay, media was aspirated and cells dye-loaded (25 μL/well) with 3 μM Fluo-4/0.01% pluronic acid in assay buffer (Hank's Balanced Saline Solution (HBSS)): 150 mM NaCl, 5 mM KCl, 1 mM CaCl2, 1 mM MgCl2, plus 20 mM N-2-Hydroxyethylpiperazine-N′-2-ethanesulfonic acid (HEPES), pH 7.4, 0.1% bovine serum albumin (BSA) and 2.5 mM probenicid) for 1 hour in 5% CO2 at 37° C. After excess dye was discarded, cells were washed in assay buffer and layered with a final volume equal to 30 μL/well. Basal fluorescence is monitored in a fluorometric imaging plate reader (FLIPR) (Molecular Devices, Sunnyvale, Calif.) with an excitation wavelength of 488 nm and an emission range of 500 to 560 nm. Laser excitation energy was adjusted so that basal fluorescence readings were approximately 10,000 relative fluorescent units. Cells were stimulated with an EC20 or an EC80 concentration of glutamate in the presence of a compound to be tested, both diluted in assay buffer, and relative fluorescent units were measured at defined intervals (exposure=0.6 sec) over a 3 min period at room temperature. Basal readings derived from negative controls were subtracted from all samples. Maximum change in fluorescence was calculated for each well. Concentration-response curves derived from the maximum change in fluorescence were analyzed by nonlinear regression (Hill equation). A negative modulator can be identified from these concentration-response curves if a compound produces a concentration dependent inhibition of the EC80 glutamate response.

[3] = tested on: Male Rj: Wistar (Hans) rats; experiment: Vogel Conflict Test (punished drinking); type: in vivo; details: rat
Method: The “Vogel Conflict Test” as described by Vogel et al. [Psychopharmacologia, 1971, 21, 1-7] was used to detect anxiolytic activity of a compound of formula (I) because anxiolytics increase punished drinking. In the test, rats were deprived of water for approximately 48 hours and were then placed individually into a transparent Plexiglas® enclosure (15×32×34 cm) with a floor consisting of stainless steel bars (0.4 cm) spaced 1 cm apart. The back wall of the enclosure was made of opaque Plexiglas® thereby concealing the observer from the experimental animal. In the center of the opposite wall, 5 cm above the floor, a metal water spout protruded into the cage and was connected to one pole of a shock generator (Apelex: Type 011346). The other pole of the shock generator was connected to the metal grid floor.
The rat was left to explore until it found the water spout. Then, every time it drank, it received a slight electric shock (1.7 mA, 1 s) 2 seconds after it started lapping. The number of punished drinks was counted during a 3 minute test. The test was performed blind with 10 rats per group. Testing included multiple tests using reference compounds and a compound of formula (I) that were prepared and administered as described below in the LES test. Male Rj: Wistar (Hans) rats as described therein were used after acclimatization conditions were achieved. Data was analyzed by comparing treated groups with appropriate controls using unpaired Student's t tests.

[4] = target: T2, human metabotropic glutamate receptor 5 (hmGluR5) (Homo sapiens, UniProt P41594); experiment: Calcium mobilization (FLIPR) assay for negative allosteric modulation, EC80 glutamate, hmGluR5 in HEK 293; type: cell-based; details: HEK293; hmGluR5, inhibition of EC80 glutamate response; read-out: FLIPR maximum inhibition
T2 construct: expressed in transfected cells
How it was run: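 Stably transfected HEK 293 cells, Fluo-4-loaded, stimulated with EC80 glutamate plus test compound in HBSS/20 mM HEPES pH 7.4 with probenecid; FLIPR fluorescence read over 3 min at room temperature. Basal-subtracted maximum fluorescence change fitted by Hill equation; negative modulation seen as concentration-dependent inhibition of the EC80 response.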

[5] = tested on: C57BL/6NTac mice; details: three weeks treatment, cited from earlier work

T1 sequence (P31424 21-1203): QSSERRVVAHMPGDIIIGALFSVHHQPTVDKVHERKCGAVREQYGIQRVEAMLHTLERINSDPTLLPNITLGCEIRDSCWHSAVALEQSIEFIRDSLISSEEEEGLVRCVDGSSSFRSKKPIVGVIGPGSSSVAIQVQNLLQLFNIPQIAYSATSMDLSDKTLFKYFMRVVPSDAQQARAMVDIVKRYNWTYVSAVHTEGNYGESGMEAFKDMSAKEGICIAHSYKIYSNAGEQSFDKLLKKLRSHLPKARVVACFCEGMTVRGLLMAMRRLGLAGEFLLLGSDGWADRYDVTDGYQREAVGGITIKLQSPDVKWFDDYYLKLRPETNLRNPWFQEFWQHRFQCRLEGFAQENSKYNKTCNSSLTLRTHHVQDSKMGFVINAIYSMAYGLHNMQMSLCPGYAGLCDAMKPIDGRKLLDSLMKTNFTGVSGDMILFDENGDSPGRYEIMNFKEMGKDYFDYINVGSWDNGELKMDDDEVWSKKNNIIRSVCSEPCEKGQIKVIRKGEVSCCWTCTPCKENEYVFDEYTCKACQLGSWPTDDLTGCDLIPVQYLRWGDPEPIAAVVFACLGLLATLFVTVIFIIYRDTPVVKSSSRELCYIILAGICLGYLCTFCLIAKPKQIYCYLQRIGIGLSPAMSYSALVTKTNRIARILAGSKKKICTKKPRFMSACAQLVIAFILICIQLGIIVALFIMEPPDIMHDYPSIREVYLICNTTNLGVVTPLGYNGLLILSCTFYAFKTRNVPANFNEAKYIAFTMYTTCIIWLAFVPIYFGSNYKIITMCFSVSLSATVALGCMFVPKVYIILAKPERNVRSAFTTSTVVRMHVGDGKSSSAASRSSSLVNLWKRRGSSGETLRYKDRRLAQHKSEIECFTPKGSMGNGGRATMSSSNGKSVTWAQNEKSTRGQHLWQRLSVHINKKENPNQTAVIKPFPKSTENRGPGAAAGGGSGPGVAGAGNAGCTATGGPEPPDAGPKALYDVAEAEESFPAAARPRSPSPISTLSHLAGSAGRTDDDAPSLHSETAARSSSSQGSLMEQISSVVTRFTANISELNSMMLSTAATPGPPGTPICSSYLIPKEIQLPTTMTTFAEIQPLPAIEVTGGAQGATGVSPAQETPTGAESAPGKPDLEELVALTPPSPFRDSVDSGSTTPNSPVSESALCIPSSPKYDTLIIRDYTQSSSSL
Sequence of mGluR5 (allosteric site, [3H]MPEP) (P41594 21-1212): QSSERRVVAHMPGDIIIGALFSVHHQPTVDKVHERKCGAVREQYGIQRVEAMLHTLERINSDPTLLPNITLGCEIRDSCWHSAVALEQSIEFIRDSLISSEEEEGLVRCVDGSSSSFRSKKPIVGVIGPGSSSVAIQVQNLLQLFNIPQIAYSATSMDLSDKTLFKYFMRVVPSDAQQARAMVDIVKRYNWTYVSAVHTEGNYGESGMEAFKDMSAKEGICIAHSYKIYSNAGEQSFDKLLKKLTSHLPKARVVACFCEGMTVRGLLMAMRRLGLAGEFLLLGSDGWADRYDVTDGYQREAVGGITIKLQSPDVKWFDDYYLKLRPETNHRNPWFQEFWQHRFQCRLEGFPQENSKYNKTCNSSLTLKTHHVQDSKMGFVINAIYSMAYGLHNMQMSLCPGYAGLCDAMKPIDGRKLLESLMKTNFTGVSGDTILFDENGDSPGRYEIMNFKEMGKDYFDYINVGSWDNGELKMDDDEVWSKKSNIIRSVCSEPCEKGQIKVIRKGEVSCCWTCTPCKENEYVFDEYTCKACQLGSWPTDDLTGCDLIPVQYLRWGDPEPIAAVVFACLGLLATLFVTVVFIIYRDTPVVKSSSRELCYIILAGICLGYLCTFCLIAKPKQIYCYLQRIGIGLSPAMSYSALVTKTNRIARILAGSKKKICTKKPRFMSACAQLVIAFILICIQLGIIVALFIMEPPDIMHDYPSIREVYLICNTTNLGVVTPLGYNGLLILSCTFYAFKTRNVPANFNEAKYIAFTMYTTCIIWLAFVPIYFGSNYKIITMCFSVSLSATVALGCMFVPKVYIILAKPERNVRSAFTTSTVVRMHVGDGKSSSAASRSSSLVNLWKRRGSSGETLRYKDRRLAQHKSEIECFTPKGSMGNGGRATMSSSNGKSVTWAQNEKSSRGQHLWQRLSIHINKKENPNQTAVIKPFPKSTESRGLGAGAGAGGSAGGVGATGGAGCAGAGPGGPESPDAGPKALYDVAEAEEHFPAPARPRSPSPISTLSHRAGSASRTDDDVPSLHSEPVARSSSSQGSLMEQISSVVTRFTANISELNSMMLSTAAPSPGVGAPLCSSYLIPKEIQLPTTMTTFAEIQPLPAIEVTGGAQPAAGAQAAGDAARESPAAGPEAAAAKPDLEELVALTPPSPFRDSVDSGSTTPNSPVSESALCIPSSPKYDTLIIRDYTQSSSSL
T2 sequence (P41594 21-1212): as above

Row | Emax [2] [%] | SMILES | further results
1 | 81 to 99 | O=C(N[C@H]1CCC[C@]2(CCN(c3cccc(Cl)c3)C2=O)C1)c1ccccn1 (racemic) [Example 2, cis-pyridine-2-carboxylic acid [2-(3-chloro-phenyl)-1-oxo-2-aza-spiro[4.5]dec-7-yl]-amide] | Ki [1]: 250 nM
2 | 81 to 99 | Cc1cccc(C(=O)N[C@H]2CCC[C@]3(CCN(c4cccc(Cl)c4)C3=O)C2)n1 (relative stereo) [Example 4, cis-6-Methyl-pyridine-2-carboxylic acid [2-(3-chloro-phenyl)-1-oxo-2-aza-spiro[4.5]dec-7-yl]-amide] | Ki [1]: 74 nM
3 | 81 to 99 | Cc1cccc(C(=O)N[C@H]2CCC[C@]3(CCN(c4cccc(C)n4)C3=O)C2)n1 (relative stereo) [Example 23, cis-6-Methyl-pyridine-2-carboxylic acid [2-(6-methyl-pyridin-2-yl)-1-oxo-2-aza-spiro[4.5]dec-7-yl]-amide] | Ki [1]: 190 nM
4 | 81 to 99 | Cc1cccc(C(=O)N[C@H]2CCC[C@]3(CCN(c4ncccc4C)C3=O)C2)n1 (relative stereo) [Example 50, cis-6-Methyl-pyridine-2-carboxylic acid [2-(3-methyl-pyridin-2-yl)-1-oxo-2-aza-spiro[4.5]dec-7-yl]-amide] | 
5 | 81 to 99 | Cc1cccc(C(=O)N[C@H]2CCC[C@]3(CCN(c4ccccc4F)C3=O)C2)n1 (relative stereo) [Example 51, cis-6-Methyl-pyridine-2-carboxylic acid [2-(2-fluoro-phenyl)-1-oxo-2-aza-spiro[4.5]dec-7-yl]-amide] | 
6 | 81 to 99 | Cc1cc(N2CC[C@]3(CCC[C@H](NC(=O)c4cccc(C)n4)C3)C2=O)ccn1 (relative stereo) [Example 52, cis-6-Methyl-pyridine-2-carboxylic acid [2-(2-methyl-pyridin-4-yl)-1-oxo-2-aza-spiro[4.5]dec-7-yl]-amide] | 
7 | 81 to 99 | N#Cc1cccc(N2CC[C@]3(CCC[C@H](NC(=O)c4cccc(F)c4)C3)C2=O)n1 (relative stereo) [Example 53, cis-N-[2-(6-Cyano-pyridin-2-yl)-1-oxo-2-aza-spiro[4.5]dec-7-yl]-3-fluoro-benzamide] | 
8 | 81 to 99 | O=C(N[C@H]1CCC[C@]2(CCN(c3cc(F)cc(F)c3)C2=O)C1)c1ccccn1 (relative stereo) [Example 54, cis-Pyridine-2-carboxylic acid [2-(3,5-difluoro-phenyl)-1-oxo-2-aza-spiro [4.5]dec-7-yl]-amide] | 
9 | 81 to 99 | Cc1cncc(C(=O)N[C@H]2CCC[C@]3(CCN(c4cc(F)cc(F)c4)C3=O)C2)n1 (relative stereo) [Example 55, cis-6-Methyl-pyrazine-2-carboxylic acid [2-(3,5-difluoro-phenyl)-1-oxo-2-aza-spiro [4.5]dec-7-yl]-amide] | 
10 | 81 to 99 | O=C(N[C@H]1CCC[C@]2(CCN(c3cc(F)cc(F)c3)C2=O)C1)c1cnccn1 (relative stereo) [Example 56, cis-Pyrazine-2-carboxylic acid [2-(3,5-difluoro-phenyl)-1-oxo-2-aza-spiro [4.5]dec-7-yl]-amide] | 
11 | 81 to 99 | Cc1nccc(C(=O)N[C@H]2CCC[C@]3(CCN(c4ccc(F)cn4)C3=O)C2)n1 (relative stereo) [Example 57, cis-2-Methyl-pyrimidine-4-carboxylic acid [2-(5-fluoro-pyridin-2-yl)-1-oxo-2-aza-spiro [4.5]dec-7-yl]-amide] | 
12 | 81 to 99 | O=C(N[C@H]1CCC[C@]2(CCN(c3cccc(Cl)c3)C2=O)C1)c1ccccn1 (single isomer, unassigned) [Example 6] | 
13 | 81 to 99 | O=C(N[C@H]1CCC[C@@]2(CCN(c3cccc(Cl)c3)C2=O)C1)c1ccccn1 [Example 1, trans-Pyridine-2-carboxylic acid [2-(3-chloro-phenyl)-1-oxo-2-aza-spiro[4.5]dec-7-yl]amide] | 
14 | 81 to 99 | Cc1cccc(N2CCC3(CCCC(NC(=O)c4cccc(Cl)c4)C3)C2=O)n1 (stereo not drawn) [Example 8, 3-Chloro-N-[2-(6-methyl-pyridin-2-yl)-1-oxo-2-aza-spiro[4.5]dec-7-yl]-benzamide] | 
15 | 81 to 99 | O=C(N[C@@H]1CCC[C@@]2(CCN(c3cccc(F)c3)C2=O)C1)c1ccccn1 [Example 25, Pyridine-2-carboxylic acid [(5R,7R)-2-(3-fluoro-phenyl)-1-oxo-2-aza-spiro [4.5]dec-7-yl]-amide] | Ki [1]: 130 nM; activity in the Vogel Conflict Test ([3]; 30 mpk (p.o.)): significant activity
16 | 81 to 99 | Cc1cccc(N2CC[C@@]3(CCC[C@@H](NC(=O)c4cccc(F)c4)C3)C2=O)n1 [Example 28, 3-Fluoro-N-[(5R,7R)-2-(6-methyl-pyridin-2-yl)-1-oxo-2-aza-spiro[4.5]dec-7-yl]-benzamide] | 
17 | 81 to 99 | Cc1cccc(C(=O)N[C@H]2CCC[C@]3(CCN(c4ccccn4)C3=O)C2)n1 [Example 45, 6-Methyl-pyridine-2-carboxylic acid (1-oxo-2-pyridin-2-yl-2-aza-spiro[4.5]dec-7-yl)-amide] | 
18 |  | Cc1nccc(C(=O)N[C@@H]2CCC[C@@]3(CCN(c4cc(F)cc(F)c4)C3=O)C2)n1 [Example 82, 2-Methyl-pyrimidine-4-carboxylic acid [(5R,7R)-2-(3,5-difluoro-phenyl)-1-oxo-2-aza-spiro[4.5]dec-7-yl]-amide] | Emax [4]: 73 to 95%; activity in the Vogel Conflict Test ([3]; 10 mpk (p.o.)): significant activity
19 |  | Cc1nccc(N2CC[C@@]3(CCC[C@@H](NC(=O)c4cccc(F)c4)C3)C2=O)n1 [Example 147, 3-Fluoro-N-[(5R,7R)-2-(2-methyl-pyrimidin-4-yl)-1-oxo-2-aza-spiro[4.5]dec-7-yl]-benzamide] | Emax [4]: 47 to 93%; activity in the Vogel Conflict Test ([3]; 3 mpk (p.o.)): significant activity; activity in the Vogel Conflict Test ([3]; 10 mpk (p.o.)): significant activity; activity in the Vogel Conflict Test ([3]; 30 mpk (p.o.)): significant activity
20 |  | CNCCC(Oc1ccc(C(F)(F)F)cc1)c1ccccc1 (stereo not drawn) [fluoxetine] | effect on anxiety- and depression-like effects of seven weeks corticosterone in the OF, NSF and FST ([5]; 18 mg/kg/day ip): reversed the anxiety- and depression-like effects
21 |  | CN(C)CCCN1c2ccccc2CCc2ccccc21 [imipramine] | effect on anxiety- and depression-like effects of seven weeks corticosterone in the OF, NSF and FST ([5]; 40 mg/kg/day ip): reversed the anxiety- and depression-like effects
